Experimental data as given in patent US9073961B2, “Substitution derivatives of N6 -benzyladenosine-5′-monophosphate, methods of preparation thereof, use thereof as medicaments, and therapeutic preparations containing these compounds” (UNIVERZITA PALACKEHO V OLOMOUCI, priority 2010, dated 2015).

Key:
[1] = system: CEM (T-lymphoblastoid leukemia); experiment: Calcein AM cytotoxicity assay, CEM; type: cell-based; conditions: 72 hours incubation, Calcein AM
Excerpt: (§1) Because toxic compounds negatively influence metabolic processes in cells, many standard cytotoxicity assays are based on measurement of metabolisation rate of various artificial substrates. Resulting product is then quantified e.g. by means of spectrometry. The assays can be easily modified for use in 96-well plates. For evaluation of cytotoxic effect of the novel substituted 9-substituted cytokinin derivatives of this invention, a microtiter assay based on quantification of metabolisation of Calcein AM was used. The assay is widely used in drug screening programs and in chemosensitivity testing. In the living cells, Calcein AM is enzymatically hydrolysed and accumulation of resulting calcein is manifested by green fluorescence.
(§2) In the routine screening the following cell lines have been used: CEM (T-lymphoblastoid leukemia), HL-60 (promyelocytic leukemia), K-562 (human erythroleukemia), MCF-7 (breast carcinoma), HOS (human osteogenic sarcoma), and G-361 (human malignant melanoma). Normal human fibroblasts BJ were used as a control for routine screening of the compounds. The cells were kept in Nunc/Corning 80 cm^2 plastic bottles and grown in cell culture medium (DMEM containing 5 g/l glucose, 2 mM glutamine, 100 U/ml penicilline, 100 μg/ml streptomycine, 10% fetal bovine serum and sodium hydrogencarbonate), the compounds were prepared according to the procedure of the present invention.
(§3) The cell suspensions were prepared and diluted according to the particular cell type and the expected target cell density (2.500-30.000 cells per well based on cell growth characteristics) and pippetted (80 μl) into 96-well plates. Inoculates were allowed a pre-incubation period of 24 hours at 37° C. and 5% CO2 for stabilisation. Tested compound was added in total volume of 20 μl of water at time zero. Usually, test compound was evaluated at six 3-fold dilutions. In routine testing, the highest concentration tested was 166.7 μM. All drug concentrations were tested in triplicates. Incubations of cells with the test compounds lasted for 72 hours at 37° C., in 5% CO2 atmosphere and 100% humidity. At the end of incubation period Calcein AM in PBS was added into final concentration of 1 μg/ml. After another 1 hour of incubation fluorescence (FD) was measured with the Labsystem FIA Reader Fluoroscan Ascent (Microsystems). Tumor cell survival (TCS) was estimated using the following equation: […]=(FDdrug exposed well/FDcontrol well)×100%. The GI50 value, the drug concentration causing 50% reduction of esterase activity, was calculated from the obtained dose response curves (FIG. 1).
(§4) Cytoxicity of novel compounds was tested on panel of cell lines of different histogenetic and species origin (Table 3). […] The effective novel derivatives killed tumour cells in concentrations close to 0.1-50 μM.

[2] = system: K-562 (human erythroleukemia); experiment: Calcein AM cytotoxicity assay, K-562; type: cell-based; conditions: 72 hours incubation
Excerpt: as §1, §2, §3, §4

[3] = system: HL-60 (promyelocytic leukemia); experiment: Calcein AM cytotoxicity assay, HL60; type: cell-based, human; conditions: 72 hours incubation
Excerpt: as §1, §2, §3, §4

[4] = system: HOS (human osteogenic sarcoma); experiment: Calcein AM cytotoxicity assay, HOS; type: cell-based; conditions: 72 hours incubation
Excerpt: as §1, §2, §3, §4

[5] = system: Normal human fibroblasts BJ; experiment: Calcein AM cytotoxicity assay, BJ; type: cell-based; conditions: 72 hours incubation
Excerpt: as §1, §2, §3, §4

[6] = system: MCF-7 (breast carcinoma); experiment: Calcein AM cytotoxicity assay, MCF7; type: cell-based; conditions: 72 hours incubation
Excerpt: as §1, §2, §3, §4

[7] = system: cytokinin-dependent tobacco callus Nicotiana tabacum L. cv. Wisconsin 38; experiment: Growth of cytokinin-dependent tobacco callus; type: cell-based; conditions: for Activity (%) [10^−5 mol · l^−1 KR = 100%]: at concentration with highest activity, relative to control cytokinin; for Concentration with highest activity: tobacco callus fresh weight after four weeks
Procedure: Cytokinin effect of newly prepared derivatives was tested using cytokinin-dependent tobacco callus. The cytokinin-dependent tobacco callus Nicotiana tabacum L. cv. Wisconsin 38 was maintained at 25° C. in darkness on modified MS medium, containing per 1 liter: 4 μmol of nicotinic acid, 2.4 μmol of pyridoxine hydrochloride, 1.2 μmol of thiamine, 26.6 μmol of glycine, 1.37 μmol of glutamine, 1.8 μmol of myo-inositol, 30 g of sucrose, 8 g of agar, 5.37 μmol of NAA and 0.5 μmol of the compound tested. Subcultivation was carried out every three weeks. Fourteen days before the bioassay, the callus tissue was transferred to the media without 6-benzylaminopurine. The biological activity was determined from the increase of the fresh callus weight after four weeks of cultivation. Five replicates were prepared for each concentration of the compound tested and the entire test was repeated twice. […] The compounds to be tested were dissolved in dimethylsulfoxide (DMSO) and the solution brought up to 10^−3 M with distilled water. […] The stimulatory activity was calculated from the dose-dependent fresh weight callus growth curves.
From the obtained data, the concentration with the highest activity was selected for each compound tested. Relative activity of the compound at this concentration was calculated (Table 5). […]

SMILES	GI50 [1] [µM]	GI50 [2] [µM]	GI50 [3] [µM]	GI50 [4] [µM]	GI50 [5] [µM]	GI50 [6] [µM]	Activity (%) [10^−5 mol · l^−1 KR = 100%] [7] [%]	Concentration with highest activity [7]
O=P(O)(O)OC[C@H]1O[C@@H](n2cnc3c(NCc4ccc(F)c(F)c4F)ncnc32)[C@H](O)[C@@H]1O [Compound 38, 6-(2,3,4-trifluorobenzylamino)purine riboside-5′-monophosphate]	58.2	> 167	13	> 167	> 167	> 167		
O=P(O)(O)OC[C@H]1O[C@@H](n2cnc3c(NCc4ccc(F)c(Cl)c4)ncnc32)[C@H](O)[C@@H]1O [Compound 41, 6-(3-chloro-4-fluorobenzylamino)purine riboside-5′-monophosphate]	3.4	4.1	3.5	> 167	> 167	> 167	107 ± 4	10^−6 mol · l^−1
O=P(O)(O)OC[C@H]1O[C@@H](n2cnc3c(NCc4ccccc4Br)ncnc32)[C@H](O)[C@@H]1O [Compound 7, 6-(2-bromobenzylamino)purine riboside-5′-monophosphate]	12.3	10	6.6	> 167	> 167	> 167	100 ± 4	10^−5 mol · l^−1
O=P(O)(O)OC[C@H]1O[C@@H](n2cnc3c(NCc4ccc(Cl)c(Cl)c4)ncnc32)[C@H](O)[C@@H]1O [Compound 25, 6-(3,4-dichlorobenzylamino)purine riboside-5-monophosphate]	3	6.5	1.1	> 167	> 167	88.8		
COc1ccc(CNc2ncnc3c2ncn3[C@@H]2O[C@H](COP(=O)(O)O)[C@@H](O)[C@H]2O)c(OC)c1 [Compound 32, 6-(2,4-dimethoxybenzylamino)purine riboside-5′-monophosphate]	> 167	> 167	39	> 167	> 167	> 167		
O=P(O)(O)OC[C@H]1O[C@@H](n2cnc3c(NCc4cc(F)cc(F)c4)ncnc32)[C@H](O)[C@@H]1O [Compound 37, 6-(3,5-difluorobenzylamino)purine riboside-5′-monophosphate]	24.5	> 167	9.1	> 167	> 167	> 167	105 ± 3	10^−6 mol · l^−1
O=P(O)(O)OC[C@H]1O[C@@H](n2cnc3c(NCc4ccc(Cl)cc4Cl)ncnc32)[C@H](O)[C@@H]1O [Compound 24, 6-(2,4-dichlorobenzylamino)purine riboside-5′-monophosphate]	86.7	85.7	96.3	> 167	> 167	127		
COc1cc(CNc2ncnc3c2ncn3[C@@H]2O[C@H](COP(=O)(O)O)[C@@H](O)[C@H]2O)cc(OC)c1 [Compound 34, 6-(3,5-dimethoxybenzylamino)purine riboside-5′-monophosphate]		> 167	18.8	> 167	> 167	> 167		
O=P(O)(O)OC[C@H]1O[C@@H](n2cnc3c(NCc4ccc(F)cc4F)ncnc32)[C@H](O)[C@@H]1O [Compound 36, 6-(2,4-difluorobenzylamino)purine riboside-5-monophosphate]	7.1	7.4	3.4	> 167	> 167	> 167		
O=P(O)(O)OC[C@H]1O[C@@H](n2cnc3c(NCc4cc(F)c(F)cc4F)ncnc32)[C@H](O)[C@@H]1O [Compound 39, 6-(2,4,5-trifluorobenzylamino)purine riboside-5′-monophosphate]							105 ± 3	10^−5 mol · l^−1
O=P(O)(O)OC[C@H]1O[C@@H](n2cnc3c(NCc4ccc(Br)cc4)ncnc32)[C@H](O)[C@@H]1O [Compound 9, 6-(4-bromobenzylamino)purine riboside-5′-monophosphate]	20.6	68.2	47.7	> 167	> 167	> 167		
O=P(O)(O)OC[C@H]1O[C@@H](n2cnc3c(NCc4c(F)ccc(F)c4F)ncnc32)[C@H](O)[C@@H]1O [Compound 40, 6-(2,3,6-trifluorobenzylamino)purine riboside-5′-monophosphate]		> 167	13	> 167	> 167	> 167		
O=P(O)(O)OC[C@H]1O[C@@H](n2cnc3c(NCc4cccc(Br)c4)ncnc32)[C@H](O)[C@@H]1O [Compound 8, 6-(3-bromoobenzylamino)purine riboside-5′-monophosphate]	5	19.7	8	> 167	> 167	> 167	102 ± 11	10^−6 mol · l^−1
O=P(O)(O)OC[C@H]1O[C@@H](n2cnc3c(NCc4ccc(F)cc4Cl)ncnc32)[C@H](O)[C@@H]1O [2-chloro-4-fluorobenzylamino, 6-(2-chloro-4-fluorobenzylamino)purine riboside-5′-monophosphate]	20.9	11.7	9	> 167	> 167	> 167	108 ± 4	10^−5 mol · l^−1
COc1ccc(CNc2ncnc3c2ncn3[C@@H]2O[C@H](COP(=O)(O)O)[C@@H](O)[C@H]2O)cc1O [Compound 30, 6-(3-hydroxy-4-methoxybenzylamino)purine riboside-5′-monophosphate]	79.3	> 167	68.9	> 167	> 167	> 167		
COc1cccc(CNc2ncnc3c2ncn3[C@@H]2O[C@H](COP(=O)(O)O)[C@@H](O)[C@H]2O)c1OC [Compound 31, 6-(2,3-dimethoxybenzylamino)purine riboside-5′-monophosphate]	> 167	> 167	109	> 167	> 167	> 167		
